Experimental data: patent US20180154142A1, “METHODS AND DEVICES FOR TREATMENT OF TUMORS WITH NANO-PULSE STIMULATION” (Old Dominion University Research Foundation, priority 2016, published 2018)

Experiments:
4T1 cells [1] = assay: extracellular ATP release from treated 4T1 cells, luciferase/luciferin-based ATP determination kit; type: cell-based, mouse; settings: mitoxantrone 1 μM positive control; change from 4 hours to 24 hours following treatment; FIG. 18B
Method: (§1) Cells then were placed in a 6 well plate for 1 hour or 20 hours. Cells with media but no NPS treatment served as negative control and a known ICD inducer, mitoxantrone (1 μM) was added to cells as a positive control. Cell surface-exposed CRT was measured by flow cytometry (FACSAria). Extracellular ATP concentrations were quantified by the luciferase/luciferin-based ATP determination Kit (A22066, Thermo-Fisher). The amount of HMGB1 in the supernatant was determined by HMGB1 ELISA Kit (MBS722248, MyBioSource).

4T1 cells [2] = assay: cell surface calreticulin (CRT) on treated 4T1 cells, flow cytometry; type: cell-based, mouse; settings: mitoxantrone 1 μM positive control; change from 4 hours to 24 hours following treatment; FIG. 18A
Method: as §1

**Q.** O=C1c2c(O)ccc(O)c2C(=O)c2c(NCCNCCO)ccc(NCCNCCO)c21 [MXT, mitoxantrone] was tested. Which “levels of ATP release in the supernatants” value (4T1 cells [1]) did it give?
**A.** increases

**Q.** And the “levels of calreticulin, mean fluorescence intensity (MFI)” value (4T1 cells [2])?
**A.** largest increase
